For the assay, the target named is T1, BRAF V600E (Homo sapiens, UniProt P15056, V600E).
T1 construct: endogenous C-terminal HiBiT fusion tag on BRAF V600E allele; endogenous in cells; host or cells: A375 clone 1F10 (CRISPR-Cas9 knock-in of the HiBiT tag; parental A375 from ATCC)
Kind of assay: BRAF HiBiT degradation assay, C-terminal HiBiT-tagged BRAF V600E A375 cells (clone 1F10), Nano-Glo HiBiT Lytic assay. The assay is classed as cell-based. The following applies: for Dmax: A-375. Summed up:
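Degradation is measured as loss of HiBiT signal from BRAF V600E tagged at its native locus in A375 cells. Doses span 1 μM to 0.01 nM in half-log steps, in duplicate. Percent remaining is calculated against DMSO controls after subtracting untagged A375 background, and curve fitting yields DC50 and observed Dmax.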
A general note: HiBiT is a short tag that completes a luciferase, so light tracks the accessible tagged protein.

[1] abbreviates: A375 (BRAF V600E), DC50 at 50%: fitted conc. at Y=50.
The mark [2] stands for this setting: A375 (BRAF V600E), percentage protein degraded at maximal compound effect relative to DMSO.

Results on 15 compounds are retold here after patent US20260317324A1, “BIFUNCTIONAL COMPOUNDS FOR DEGRADING BRAF VIA UBIQUITIN PROTEOSOME PATHWAY” (Nurix Therapeutics, Inc., priority 2023, published 2026).

Some results are limits rather than exact numbers.

A word on the DC50: it is the midpoint of the concentration-degradation curve. A higher DC50 goes with degradation only at high concentration. What is called Dmax is the largest share of the target that was removed.

T1 sequence (P15056 whole entry V600E, the tested form may be a part): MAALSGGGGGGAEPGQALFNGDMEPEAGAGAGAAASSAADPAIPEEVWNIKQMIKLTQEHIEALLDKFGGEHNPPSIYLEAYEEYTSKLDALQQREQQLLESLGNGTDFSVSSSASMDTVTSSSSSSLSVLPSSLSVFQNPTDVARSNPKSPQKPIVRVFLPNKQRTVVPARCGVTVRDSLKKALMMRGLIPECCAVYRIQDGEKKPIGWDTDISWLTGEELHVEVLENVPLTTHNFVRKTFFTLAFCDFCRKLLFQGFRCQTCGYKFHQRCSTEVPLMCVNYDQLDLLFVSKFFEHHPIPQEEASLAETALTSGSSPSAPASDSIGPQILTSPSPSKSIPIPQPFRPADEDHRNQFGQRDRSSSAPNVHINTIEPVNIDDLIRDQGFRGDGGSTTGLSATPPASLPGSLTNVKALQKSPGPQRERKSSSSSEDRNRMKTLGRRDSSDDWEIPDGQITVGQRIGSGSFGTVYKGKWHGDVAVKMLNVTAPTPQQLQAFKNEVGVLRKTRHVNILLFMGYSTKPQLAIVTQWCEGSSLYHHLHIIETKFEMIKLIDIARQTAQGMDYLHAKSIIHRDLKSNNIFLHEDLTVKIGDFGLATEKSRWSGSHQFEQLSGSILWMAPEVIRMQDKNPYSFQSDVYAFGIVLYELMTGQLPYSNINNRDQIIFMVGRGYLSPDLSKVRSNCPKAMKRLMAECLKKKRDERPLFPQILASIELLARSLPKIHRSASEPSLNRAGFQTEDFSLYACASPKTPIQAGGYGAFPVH

With `CCCS(=O)(=O)Nc1cccc(-c2nc(C(C)(C)C)sc2-c2ccnc(Nc3cnn(C4CCN(C(=O)C[C@@H]5CCN(c6ccc(C7CCC(=O)NC7=O)cc6)C5)CC4)c3)n2)c1F` (mixture of isomers) [Compound 105, N-{3-[2-tert-butyl-5-(2-{[1-(1-{2-[(3S)-1-{4-[(3RS)-2,6-dioxopiperidin-3-yl]phenyl}pyrrolidin-3-yl]acetyl}piperidin-4-yl)-1H-pyrazol-4-yl]amino}pyrimidin-4-yl)-1,3-thiazol-4-yl]-2-fluorophenyl}propane-1-sulfonamide], under setting [1], the DC50 is greater than 500 nM. The compound also displayed a Dmax under setting [2] of 30 to 70%.
`CCN(C)S(=O)(=O)Nc1cccc(-c2nc(C)sc2-c2ccnc(Nc3ccc(N4CCN(CC5(C)CCN(c6ccc(C7CCC(=O)NC7=O)cn6)CC5)CC4)cn3)n2)c1F` (racemic) [Compound 34, Rac-(3S)-3-{6-[4-({4-[6-({4-[4-(3-{[ethyl(methyl)sulfamoyl]amino}-2-fluorophenyl)-2-methyl-1,3-thiazol-5-yl]pyrimidin-2-yl}amino)pyridin-3-yl]piperazin-1-yl}methyl)-4-methylpiperidin-1-yl]pyridin-3-yl}piperidine-2,6-dione] showed a half-maximal degradation concentration (DC50) under setting [1] of 10 to 50 nM. Under setting [2], this compound came in with a Dmax greater than 70%.
For `CCCS(=O)(=O)Nc1cccc(-c2nc(C(C)(C)C)sc2-c2ccnc(NC3CC4(C3)CN(C(=O)CCCCCc3ccc5c(c3)C(=O)N(C3CCC(=O)NC3=O)C5)C4)n2)c1F` (racemic) [Compound 150, Rac-N-{3-[2-tert-butyl-5-(2-{[2-(6-{2-[(3R)-2,6-dioxopiperidin-3-yl]-3-oxo-2,3-dihydro-1H-isoindol-5-yl}hexanoyl)-2-azaspiro[3.3]heptan-6-yl]amino}pyrimidin-4-yl)-1,3-thiazol-4-yl]-2-fluorophenyl}propane-1-sulfonamide] the same measures were 50 to 500 nM and 30 to 70%.
Consider `CCCS(=O)(=O)Nc1cccc(-c2nc(C)sc2-c2ccnc(Nc3ccc(N4CCN(CC5CCN(c6ccc([C@H]7CCC(=O)NC7=O)cc6)CC5)CC4)cn3)n2)c1F` [Compound 60, N-[3-(5-{2-[(5-{4-[(1-{4-[(3R)-2,6-dioxopiperidin-3-yl]phenyl}piperidin-4-yl)methyl]piperazin-1-yl}pyridin-2-yl)amino]pyrimidin-4-yl}-2-methyl-1,3-thiazol-4-yl)-2-fluorophenyl]propane-1-sulfonamide], for which the DC50 under setting [1] was in the range of 10 to 50 nM. The compound also returned a Dmax under setting [2] greater than 70%.
On the same counts, the results for `CCCS(=O)(=O)Nc1cccc(-c2nc(C3CCN(C(=O)C4(C)CCN(C(=O)C5CCN(c6ccc(C7CCC(=O)NC7=O)cc6)CC5)CC4)CC3)sc2-c2ccnc(N)n2)c1F` (racemic) [Compound 196, Rac-N-{3-[5-(2-aminopyrimidin-4-yl)-2-{1-[1-(1-{4-[(3R)-2,6-dioxopiperidin-3-yl]phenyl}piperidine-4-carbonyl)-4-methylpiperidine-4-carbonyl]piperidin-4-yl}-1,3-thiazol-4-yl]-2-fluorophenyl}propane-1-sulfonamide] are less than 10 nM and greater than 70%.
On the same counts, the results for `CCCS(=O)(=O)Nc1cccc(-c2nc(C)sc2-c2ccnc(Nc3ccc(C4CCN(CC5CCN(c6ccc(C7CCC(=O)NC7=O)cn6)CC5)CC4)cc3)n2)c1F` (racemic) [Compound 54, Rac-N-[3-(5-{2-[(4-{1-[(1-{5-[(3R)-2,6-dioxopiperidin-3-yl]pyridin-2-yl}piperidin-4-yl)methyl]piperidin-4-yl}phenyl)amino]pyrimidin-4-yl}-2-methyl-1,3-thiazol-4-yl)-2-fluorophenyl]propane-1-sulfonamide] are less than 10 nM and greater than 70%.
On the same counts, the results for `CCCS(=O)(=O)Nc1cccc(-c2nc(C(C)(C)C)sc2-c2ccnc(Nc3cnn(C4CCN(C(=O)C5CCN(c6ccc(C(=O)NC7CCC(=O)NC7=O)nc6)CC5)CC4)c3)n2)c1F` (racemic) [Compound 107, Rac-5-[4-(4-{4-[(4-{2-tert-butyl-4-[2-fluoro-3-(propane-1-sulfonamido)phenyl]-1,3-thiazol-5-yl}pyrimidin-2-yl)amino]-1H-pyrazol-1-yl}piperidine-1-carbonyl)piperidin-1-yl]-N-[(3R)-2,6-dioxopiperidin-3-yl]pyridine-2-carboxamide] are 10 to 50 nM and 30 to 70%.
Compound `CCCS(=O)(=O)Nc1cccc(-c2nc(C3CCC4(CC3)CCN(C(=O)C[C@H]3CCN(c5ccc(C6CCC(=O)NC6=O)cc5)C3)CC4)sc2-c2ccnc(N)n2)c1F` (mixture of isomers) [Compound 253, N-{3-[5-(2-aminopyrimidin-4-yl)-2-(3-{2-[(3R)-1-{4-[(3RS)-2,6-dioxopiperidin-3-yl]phenyl}pyrrolidin-3-yl]acetyl}-3-azaspiro[5.5]undecan-9-yl)-1,3-thiazol-4-yl]-2-fluorophenyl}propane-1-sulfonamide] displayed a DC50 (A375 (BRAF V600E, Class 1), DC50 at 50% degradation) of 10 to 50 nM. The same compound displayed a maximal degradation (Dmax) (A375 (BRAF V600E, Class 1), observed Dmax, % protein degraded relative to DMSO control) of 30 to 70%.
`CCCS(=O)(=O)Nc1cccc(-c2nc(C(C)(C)C)sc2-c2ccnc(Nc3ccc(C4CCN(C(=O)CC5CCN(C6CCN(c7ccc8c(c7)C(=O)N(C7CCC(=O)NC7=O)C8=O)CC6)CC5)CC4)cc3)n2)c1F` (racemic) [Compound 158, Rac-N-[3-(2-tert-butyl-5-{2-[(4-{1-[2-(1′-{2-[(3R)-2,6-dioxopiperidin-3-yl]-1,3-dioxo-2,3-dihydro-1H-isoindol-5-yl}-[1,4′-bipiperidin]-4-yl)acetyl]piperidin-4-yl}phenyl)amino]pyrimidin-4-yl}-1,3-thiazol-4-yl)-2-fluorophenyl]propane-1-sulfonamide] came in with a DC50 under setting [1] of 50 to 500 nM. For the same compound, the Dmax under setting [2] is 30 to 70%.
For `CCCS(=O)(=O)Nc1cccc(-c2nc(C3CCN(C(=O)C4CCN(CC5CCN(c6ccc(C7CCC(=O)NC7=O)cc6)CC5)CC4)CC3)sc2-c2ccnc(N)n2)c1F` (racemic) [Compound 228, Rac-N-{3-[5-(2-aminopyrimidin-4-yl)-2-(1-{1-[(1-{4-[(3R)-2,6-dioxopiperidin-3-yl]phenyl}piperidin-4-yl)methyl]piperidine-4-carbonyl}piperidin-4-yl)-1,3-thiazol-4-yl]-2-fluorophenyl}propane-1-sulfonamide] the same measures were less than 10 nM and greater than 70%.
Regarding `CCCS(=O)(=O)Nc1cccc(-c2nc(C(C)(C)C)sc2-c2ccnc(Nc3cnn(CC4CCN(CC[C@@H]5CCN(c6ccc(C7CCC(=O)NC7=O)cn6)C5)CC4)c3)n2)c1F` (mixture of isomers) [Compound 81, N-(3-{2-tert-butyl-5-[2-({1-[(1-{2-[(3R)-1-{5-[(3RS)-2,6-dioxopiperidin-3-yl]pyridin-2-yl}pyrrolidin-3-yl]ethyl}piperidin-4-yl)methyl]-1H-pyrazol-4-yl}amino)pyrimidin-4-yl]-1,3-thiazol-4-yl}-2-fluorophenyl)propane-1-sulfonamide], the DC50 under setting [1] was 10 to 50 nM. Also, the maximal degradation (Dmax) under setting [2] is greater than 70%.
For `CCCS(=O)(=O)Nc1cccc(-c2nc(C3CCC4(CC3)CCN(C(=O)CN3CCC5(CC3)CN(c3ccc6c(c3)C(=O)N(C3CCC(=O)NC3=O)C6=O)C5)CC4)sc2-c2ccnc(N)n2)c1F` (racemic) [Compound 237, Rac-N-{3-[5-(2-aminopyrimidin-4-yl)-2-{3-[2-(2-{2-[(3R)-2,6-dioxopiperidin-3-yl]-1,3-dioxo-2,3-dihydro-1H-isoindol-5-yl}-2,7-diazaspiro[3.5]nonan-7-yl)acetyl]-3-azaspiro[5.5]undecan-9-yl}-1,3-thiazol-4-yl]-2-fluorophenyl}propane-1-sulfonamide] the same measures were less than 10 nM and greater than 70%.
On the same counts, the results for `CCCS(=O)(=O)Nc1cccc(-c2nc(C(C)(C)C)sc2-c2ccnc(NC3CC4(C3)CN(C(=O)C3CN(C5CCN(c6ccc7c(c6)C(=O)N(C6CCC(=O)NC6=O)C7=O)CC5)C3)C4)n2)c1F` (racemic) [Compound 154, Rac-N-(3-{2-tert-butyl-5-[2-({2-[1-(1-{2-[(3R)-2,6-dioxopiperidin-3-yl]-1,3-dioxo-2,3-dihydro-1H-isoindol-5-yl}piperidin-4-yl)azetidine-3-carbonyl]-2-azaspiro[3.3]heptan-6-yl}amino)pyrimidin-4-yl]-1,3-thiazol-4-yl}-2-fluorophenyl)propane-1-sulfonamide] are 50 to 500 nM and greater than 70%.
Consider `CCN(C)S(=O)(=O)Nc1cccc(-c2nc(C(C)(C)C)sc2-c2ccnc(Nc3ccc(N4CCN(C(=O)[C@H]5CC[C@H](CN6CCc7ccc(C8CCC(=O)NC8=O)cc7C6)CC5)CC4)cn3)n2)c1F` (mixture of isomers) [Compound 124, Rac-(3S)-3-(2-{[(1r,4r)-4-{4-[6-({4-[2-tert-butyl-4-(3-{[ethyl(methyl)sulfamoyl]amino}-2-fluorophenyl)-1,3-thiazol-5-yl]pyrimidin-2-yl}amino)pyridin-3-yl]piperazine-1-carbonyl}cyclohexyl]methyl}-1,2,3,4-tetrahydroisoquinolin-7-yl)piperidine-2,6-dione], for which the DC50 under setting [1] is 50 to 500 nM. Further, the Dmax under setting [2] was 30 to 70%.
For `CCCS(=O)(=O)Nc1cccc(-c2nc(C(C)(C)C)sc2-c2ccnc(NC3CC4(CCN(C(=O)CN5CCN(c6ccc7c(c6)C(=O)N(C6CCC(=O)NC6=O)C7=O)CC5)CC4)C3)n2)c1F` (racemic) [Compound 132, Rac-N-(3-{2-tert-butyl-5-[2-({7-[2-(4-{2-[(3R)-2,6-dioxopiperidin-3-yl]-1,3-dioxo-2,3-dihydro-1H-isoindol-5-yl}piperazin-1-yl)acetyl]-7-azaspiro[3.5]nonan-2-yl}amino)pyrimidin-4-yl]-1,3-thiazol-4-yl}-2-fluorophenyl)propane-1-sulfonamide] the same measures were 10 to 50 nM and 30 to 70%.
